Test results reported in patent publication US20030152599A1, “Composition for external use” (Shiseido Co., Ltd., priority 1999, published 2003).

Legend:
keratinous layer [1] = assay: Water content of the keratinous layer (electrical conductivity, Skicon-200); format: in vivo, human (middle-aged subjects); settings: 1% aqueous solution, inside of the forearm, three times per day for four days
Experimental: (§1) The effect of 2-amino-1,3-propanediol and 2-amino-1,3-propanediol hydrochloride on mitigation of decrease in turnover rate of the keratinous layer induced by aging was investigated in four middle-aged subjects. The turnover rate, water content of the keratinous layer, and elasticity of the skin were evaluated. 1% Aqueous solutions of 2-amino-1,3-propanediol and its hydrochloride were employed as the representative compositions of the present invention. A 1% aqueous solution of glycolic acid—which is one type of AHA—was employed as a comparative composition, and water (purified water) was employed as a reference.
(§2) A 1% phosphor solution (1 mL) in ethanol was added to an outer syringe (length: about 2 cm) of a 10-mL disposable injector, to bring the solution into contact with the skin for one minute (four portions on the inside of the forearm). From the next day, each sample including water was applied to the phosphor-contacted portions. Application was performed three times per day and continued for four consecutive days.
Water content of the keratinous layer was measured by use of an apparatus for measuring electrical conductivity (Skicon-200, product of IBS). The conductivity was employed as an index of water content. Thus, the higher the water content, the higher the electrical conductivity.
(§3) The turnover rate, water content of keratinous layer and elasticity of the skin in case of 2-amino-2-methyl-1,3-propanediol and its hydrochloride were also investigated.

keratinous layer [2] = assay: Turnover rate of the keratinous layer (decrease in fluorescence from the skin surface); format: in vivo, human (middle-aged subjects); settings: 1% aqueous solution, inside of the forearm, three times per day for four days, measured on the fifth day
Experimental: as §1, §2
On the fifth day after the test was initiated, intensity of fluorescence from the skin surface was measured by use of a fluorescence-detector designed for this particular use. Decrease in fluorescence was employed as an index of the turnover rate of the keratinous layer. The larger the decrease in fluorescence, the greater the turnover rate.
as §3

skin = assay: Elasticity of the skin (Cutometer SEM474, Ur/Uf); format: in vivo, human (middle-aged subjects); settings: 1% aqueous solution, inside of the forearm, three times per day for four days; Ur/Uf at 300 hPa
Experimental: as §1, §2
Elasticity of the skin was measured by use of Cutometer SEM474 (product of Courage+Khazaka). The elasticity was obtained from extension (Uf) and retraction (Ur) of the skin when a negative pressure of 300 hPa was repeatedly applied to the skin by use of a probe having a diameter of 2 mm. The ratio (Ur/Uf) was employed as an index of elasticity of the skin. The higher the ratio, the higher the elasticity of the skin.
as §3

desmoglein = assay: Evaluation for promotion of decomposition of desmoglein (keratinous layer sheet, anti-desmoglein immunoblot); format: biochemical; settings: applied to both sides of keratinous layer sheet, 37° C., humidity 75%, one week; versus glycolic acid positive control
Experimental: To both sides of a sheet (1.5±0.2 mg) of the keratinous layer was applied 2-amino-1,3-propanediol, 2-amino-1,3-propanediol hydrochloride, or glycolic acid (5 μL for each side). Glycolic acid, which is one of AHA's, was used as a positive control. The sheet was sandwiched by stainless steel mesh sheets and allowed to stand at 37° C. with a humidity of 75% for one week. Subsequently, the sheet was transferred into a microtube, and an extracting liquid (100 μL) was added to the microtube. The mixture was maintained at 37° C. overnight to extract protein from the mixture. The extract was subjected to electrophoresis by use of […], and the gel was transferred to a PVDF membrane. An anti-desmoglein antibody and an alkaline-phosphatase-labeled anti-IgG sequentially reacted with the […], and the resultant gel was colored with alkaline phosphatase. The image of bands formed on the membrane was captured by an image-scanner, and was analyzed, to obtain the amount of desmoglein. The test was performed twice, and an average value of the amount was calculated. The average values of samples were compared.
The effect of 2-amino-2-methyl-1,3-propanediol and its hydrochloride was investigated in accordance with the same method.

Compound	water content of the keratinous layer (keratinous layer [1])	mitigation of decrease in turnover rate of the keratinous layer induced by aging (keratinous layer [2])	elasticity of the skin (skin)	effect of promoting decomposition of desmoglein (desmoglein)
Cl.NC(CO)CO [2-amino-1,3-propanediol hydrochloride]	improve water content of the keratinous layer	mitigate decrease in turnover rate induced by aging	improve	stronger effect of promoting decomposition of desmoglein than does glycolic acid
NC(CO)CO [2-amino-1,3-propanediol]	improve water content of the keratinous layer	mitigate decrease in turnover rate induced by aging	improve	stronger effect of promoting decomposition of desmoglein than does glycolic acid
CC(N)(CO)CO.Cl [2-amino-2-methyl-1,3-propanediol hydrochloride]	more strongly than does glycolic acid	more strongly than does glycolic acid	more strongly than does glycolic acid	stronger effect of promoting decomposition of desmoglein than does glycolic acid
CC(N)(CO)CO [2-amino-2-methyl-1,3-propanediol]	more strongly than does glycolic acid	more strongly than does glycolic acid	more strongly than does glycolic acid	stronger effect of promoting decomposition of desmoglein than does glycolic acid
